In publication PMC4787807 (Nucleic Acids Research, 2015):

Biological target: EAV nsp9 (Equine arteritis virus Bucyrus, UniProt P19811)
Test: covalent labelling, tryptic digest and nano-LC-MS/MS

EAV nsp9, sequence (P19811 1678-2370): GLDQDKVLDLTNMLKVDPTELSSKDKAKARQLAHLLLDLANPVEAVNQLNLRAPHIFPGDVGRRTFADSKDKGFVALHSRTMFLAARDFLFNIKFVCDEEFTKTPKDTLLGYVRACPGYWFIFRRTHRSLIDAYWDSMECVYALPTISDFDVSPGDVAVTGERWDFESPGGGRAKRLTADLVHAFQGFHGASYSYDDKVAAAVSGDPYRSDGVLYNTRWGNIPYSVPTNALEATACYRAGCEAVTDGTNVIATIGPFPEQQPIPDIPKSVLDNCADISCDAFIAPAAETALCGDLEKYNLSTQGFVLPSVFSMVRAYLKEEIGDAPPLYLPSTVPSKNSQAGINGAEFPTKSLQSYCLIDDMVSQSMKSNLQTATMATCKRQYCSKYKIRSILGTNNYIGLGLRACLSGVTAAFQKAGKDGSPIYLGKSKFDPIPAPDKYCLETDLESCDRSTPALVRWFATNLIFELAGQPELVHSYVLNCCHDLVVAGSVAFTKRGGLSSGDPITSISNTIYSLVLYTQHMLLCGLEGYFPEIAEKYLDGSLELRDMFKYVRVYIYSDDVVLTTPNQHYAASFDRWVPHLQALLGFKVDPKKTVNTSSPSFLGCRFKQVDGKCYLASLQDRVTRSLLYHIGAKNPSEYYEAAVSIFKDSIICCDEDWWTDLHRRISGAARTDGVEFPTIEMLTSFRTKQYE

For `Nc1nc2c(ncn2[C@@H]2O[C@H](COC(=O)c3ccc(S(=O)(=O)F)cc3)[C@@H](O)[C@H]2O)c(=O)[nH]1` [FSBG, 5′-(4-fluorosulfonylbenzoyl)guanosine], the “covalent labelling, tryptic digest and nano-LC-MS/MS” value was “seven modified peptides representing five distinct nsp9 regions could be assigned”.
